Data on 2 molecules can be found in patent US7345073B2, “Method for treating cryptorchidism” (Hormos Medical Ltd., priority 2003, dated 2008).

For assay [1], the system named is wild type FVB/N mice. Briefly: Relative testes weights (testes weight/animal weight), wild type mice. The conditions noted are these: n = 7, finrozole 10 mg/kg p.o. daily for six weeks, SD 0.0003. It is filed as in vivo, mouse. On the procedure: (§1) The aromatase inhibitor finrozole {MPV-2213ad (10695U, without purification, Hormos Medical Ltd.} was the test compound. Vehicle (CMC-solution) was used as control substance. CMC-solution was prepared as follows: 0.25 g carboxylmethylcellulosa (CMC) (lot. 939512, Tamro OYJ) was weighed and solubilized in 50 ml of deionized (Milli-Q) water. The solution was prepared once a week and stored at +4° C. The dose level of finrozole 10 mg/kg dose level was used. The vehicle-test/control-solution, which was given to the test animals, was prepared daily as follows: the appropriate amount of finrozole was weighed in a transparent glass mortar. A few drops of vehicle were added and the mixture was thoroughly mixed. After this ⅓ of the final volume of vehicle was added to the mortar and placed into an ultrasonic incubator for five minutes. This procedure was done total of three times to reach the final volume.
(§2) In the experiment there was […] different kind of groups of male mice, ten animals in each group. One control group (wild type FVB/N) received vehicle, as well as the other control (021 line) group. The last groups were treated with finrozole (10 mg/kg).
(§3) The dosing (4 ml solution/kg) of the animals took place p.o. daily for six weeks. On Saturdays, however, double dose of the test compounds was given to animals. On sundays there was no treatment.
(§4) The trial was conducted in total of 39 mice. […]

Assay [2] deals with Aromatase over expressing mice AROM+ (line 021). Briefly: Testes descent (palpation and opening the animal) after six weeks of p.o. treatment, AROM+ mice. The format is in vivo, mouse. The conditions noted are these: AROM+ (021) male mice, ten mice; finrozole 10 mg/kg p.o. daily for six weeks. As to the method:
as §1
(§5) Aromatase over expressing mice AROM^+ were used in this study. The mice were maintained under standard laboratory conditions at 12:12 light/dark cycle, and received free access to soyfree pelleted food (SDS, Witham, Essex, UK), and tap water.
We have generated a transgenic mouse model bearing the human ubiquitin C promoter/human P450 aromatase fusion gene (AROM^+). […] The AROM^+ males present with a multitude of severe structural and functional abnormalities of the reproductive system, such as cryptochidism, dysmorphic semiferous tubules and disrupted spermatogenesis. The males also have small or rudimentary accessory sex glands with abnormal morphology, a prominent prostatic utricle with squamous epithelial metaplasia, and abnormal morphology of ejaculatory duct and vas deferens. In addition, the abdominal wall muscle layer is thin, and the adrenals are enlarged with cortical hyperplasia. […] Some of the disorders in reproductive system, furthenmore, can be explained by the fact that the AROM^+ males are hypo-androgenic. […]

Assay [3] concerns wild type FVB/N mice. Briefly: Testes descent (palpation and opening the animal) after six weeks of p.o. treatment, wild type mice. It is filed as in vivo, mouse. The conditions noted are these: wild type FVB/N male mice, nine mice; finrozole 10 mg/kg p.o. daily for six weeks. On the procedure:
as §1, §2, §3, §4

Assay [4] has as its system Aromatase over expressing mice AROM+ (line 021). Put plainly: Relative testes weights (testes weight/animal weight), AROM+ mice. It is filed as in vivo, mouse. The conditions noted are these: AROM+ (021) mice, n = 10; finrozole 10 mg/kg p.o. daily for six weeks; SD 0.0003. On the procedure: as §1, §5
We have generated a transgenic mouse model bearing the human ubiquitin C promoter/human P450 aromatase fusion gene (AROM^+). […]

Assay [5] deals with cryptorchidism (non-descended testes). As to conditions: according to one study; cited from earlier work.

Consider `N#Cc1ccc(C(C(O)Cc2ccc(F)cc2)n2cncn2)cc1` (single isomer, unassigned) [finrozole, 1-[1-(4-cyanophenyl)-3-(4-fluorophenyl)-2-hydroxypropyl]-1,2,4-triazole, diasteroisomer a+d], for which the “Relative testes weights (testes weight/animal weight)” value in assay [1] was 0.0027. In addition, in assay [2], the “Number of descended testes” value was 17, the “Number of partly descended testes” value was determined as 2 and the “Number of undescended testes” value worked out at 1. In assay [3], the “Number of descended testes” value is 18. In assay [4], the “Relative testes weights (testes weight/animal weight)” value is listed as 0.0033.

“LHRH: lutenizing-hormone releasing hormone, hormonal treatment of cryptorchidism (QHWSYGLRPG; Gonadoliberin-1; UniProt P01148 24-33, looked up)”: the “efficacy in cases of true non-descended testes” value in assay [5] is “ineffective”.
